Experimental data taken from US20080009025A1, “PROTEIN KINASE REGULATION” (priority 1999, published 2008).
Where a SMILES comes first, the peptide text is derived from it.

Tests used:
Assay in all cases: Surface plasmon resonance binding of PDK1 to PIF / immobilised PIFtide
PDK1 [1] = target: T1, PDK1 (Homo sapiens, UniProt O15530, K115A); details: immobilised biotinylated peptide; PDK1 K115A
T1 construct: Full length PDK1 (residues 1-556); made in house; host or cells: 293 cells
T1 sequence (O15530 1-556 K115A): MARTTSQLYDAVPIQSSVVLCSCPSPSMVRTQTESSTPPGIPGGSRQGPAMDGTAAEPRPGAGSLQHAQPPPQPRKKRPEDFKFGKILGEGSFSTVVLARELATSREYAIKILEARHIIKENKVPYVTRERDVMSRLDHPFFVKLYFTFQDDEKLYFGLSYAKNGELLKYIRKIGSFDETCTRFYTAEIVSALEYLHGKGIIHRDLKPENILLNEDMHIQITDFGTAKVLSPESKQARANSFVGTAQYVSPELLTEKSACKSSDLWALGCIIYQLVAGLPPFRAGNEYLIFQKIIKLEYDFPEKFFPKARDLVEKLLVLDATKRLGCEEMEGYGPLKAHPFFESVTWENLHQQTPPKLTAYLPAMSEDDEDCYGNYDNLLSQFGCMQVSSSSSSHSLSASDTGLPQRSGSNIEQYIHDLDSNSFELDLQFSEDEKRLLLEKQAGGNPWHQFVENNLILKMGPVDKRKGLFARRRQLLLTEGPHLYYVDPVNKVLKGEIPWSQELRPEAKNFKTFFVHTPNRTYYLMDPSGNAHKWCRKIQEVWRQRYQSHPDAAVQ
Excerpt: (§1) It is preferred that the interaction can be detected using a surface plasmon resonance method, as described in Example 1 or 2 and in Balendran et al (1999), supra and GB9906245.7, supra. The interacting polypeptide may be immobilised on the test surface, for example it can be coupled through amino groups to a SensorChip CM5™, according to the manufacturer's instructions, or a biotinylated polypeptide can be bound to an avidin coated SensorChip SA. The protein kinase (at concentrations between, for example 0 and […], for example 2 μM) is then injected over the surface and steady state binding determined in each case. From these measurements a Kd can be determined. […] Alternatively, a Kd can be determined for a polypeptide in competition with the immobilised polypeptide. The protein kinase (for example at a concentration of 0.5 μM) is mixed with free polypeptide (for example, at concentrations between 0 and 3 μM) and the mixture injected over the immobilised polypeptides. The steady state binding is determined in each case, from which the Kd of the interaction can be determined using the […] relationship. Alternatively, the interaction may be expressed in terms of an observed response or relative observed responses, measured in terms of mass of protein bound to the surface, as described in Example 2. For example, the polypeptide may be immobilised by amino coupling to a SensorChip CM5 and each protein kinase (for example different mutated protein kinases, as discussed below) for example at a concentration of 1.0 μM, injected over the immobilised polypeptide. Alternatively, the polypeptide may be immobilised on a SA SensorChip and each protein kinase, for example at a concentration of 40 nM injected over the immobilised polypeptide. The steady state response for each protein kinase is determined, for example expressed in Response Units (RU). 1000 RU corresponds to 1 ng/mm^2 of protein bound to the surface. A response of less than 10 RU may indicate that no interaction has taken place. A response of at least 10 RU may indicate that the immobilised and injected molecules interact with each other.
(§2) FIG. 9. Effect of mutation of conserved residues in the PIF-binding pocket of PDK1 on the ability to interact with PIF. 293 cells were transiently transfected with DNA constructs expressing GST-PIF and either wild type Myc-PDK1 or the indicated mutants of PDK1. 36 h post transfection the cells were lysed and GST-PIF purified by affinity chromatography on glutathione-Sepharose beads. 2 μg of each protein was electrophoresed on a 10% SDS/polyacrylamide gel and either stained with Coomassie blue (A and E) or immunoblotted using an anti Myc antibody to detect Myc-PDK1 (B and F). To establish that the wild type PDK1 and mutant proteins were expressed at a similar level, 10 μg of total cell lysate was electrophoresed on a 10% SDS/polyacrylamide gel and immunoblotted using anti-Myc antibodies (C and G). Duplicates of each condition are shown. Similar results were obtained in 3 to 5 separate experiments. (D) Surface Plasmon Resonance measurements were carried out in a BiaCore instrument as described in the Methods to measure the interaction of wild type and mutant GST-PDK1 preparations with the 24 residue synthetic peptide whose sequence encompasses the PDK1 binding site on PIF termed PIFtide [24: Example 2]. […]
(§3) Binding was analysed directly by surface plasmon resonance in an upgraded Bia-Lite™ system. […]

PDK1 [2] = system: PDK1; design: species or system human
Excerpt: as §1, §2, §3

PDK1 [3] = target: T2, PDK1 (Homo sapiens, UniProt O15530); details: His-tagged PDK1
T2 construct: Full length PDK1 (residues 1-556); made in house; host or cells: 293 cells
T2 sequence (O15530 52-556): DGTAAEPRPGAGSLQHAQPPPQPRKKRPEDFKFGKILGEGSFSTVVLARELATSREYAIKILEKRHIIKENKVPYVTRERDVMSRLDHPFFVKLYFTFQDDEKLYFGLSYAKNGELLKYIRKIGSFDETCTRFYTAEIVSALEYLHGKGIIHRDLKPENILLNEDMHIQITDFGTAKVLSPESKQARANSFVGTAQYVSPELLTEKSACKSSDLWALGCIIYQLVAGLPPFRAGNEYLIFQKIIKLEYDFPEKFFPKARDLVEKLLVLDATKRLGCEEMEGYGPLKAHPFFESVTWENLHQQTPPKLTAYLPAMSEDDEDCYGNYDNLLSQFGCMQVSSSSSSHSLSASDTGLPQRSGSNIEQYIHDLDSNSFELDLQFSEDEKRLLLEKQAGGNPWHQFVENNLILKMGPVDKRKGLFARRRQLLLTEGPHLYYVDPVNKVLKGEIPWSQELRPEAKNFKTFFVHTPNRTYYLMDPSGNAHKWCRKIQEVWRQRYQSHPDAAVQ
Excerpt: as §1, §2, §3

estimated equilibrium dissociation constant of the association between GST-PIF and His-tagged PDK1 (PDK1 [3])	Molecule	interaction with K115A mutant of PDK1 (PDK1 [1])	decreased affinity of PDK1[K115A], PDK1[I119A], PDK1[Q150A] and PDK1[L155A] for PIFtide (PDK1 [2]; PDK1 PIF pocket mutants vs wild type, unpublished data)	interaction with L155S, L155D and L155E mutants of PDK1 (PDK1 [2]; immobilised biotinylated peptide, PDK1 mutants L155S, L155D, L155E)	interaction with wild type GST-PDK1 (PDK1 [2]; immobilised biotinylated peptide, wild type GST-PDK1)
–	CC[C@H](C)[C@H](NC(=O)[C@H](Cc1ccc(O)cc1)NC(=O)[C@H](CC(=O)O)NC(=O)[C@H](Cc1ccccc1)NC(=O)[C@H](CC(=O)O)NC(=O)[C@H](CCCNC(=N)N)NC(=O)[C@H](Cc1ccccc1)NC(=O)[C@H](CCSC)NC(=O)[C@H](CCC(=O)O)NC(=O)[C@H](CCC(N)=O)NC(=O)[C@H](CCC(=O)O)NC(=O)[C@H](CCC(=O)O)NC(=O)[C@H](CCC(=O)O)NC(=O)[C@H](CO)NC(=O)[C@H](CC(C)C)NC(=O)[C@@H](NC(=O)[C@H](CCCNC(=N)N)NC(=O)[C@@H]1CCCN1C(=O)[C@H](CCC(=O)O)NC(=O)[C@@H](N)CCCNC(=N)N)[C@@H](C)CC)C(=O)N[C@@H](C)C(=O)N[C@@H](CC(=O)O)C(=O)N[C@@H](Cc1c[nH]c2ccccc12)C(=O)N[C@@H](CS)C(=O)O [PIFtide] (H-REPRILSEEEQEMFRDFDYIADWC-OH; N-terminus and C-terminus assumed)	interacted weakly	~10 fold	no detectable affinity	high affinity interaction
600 nM	GST-PIF: glutathione S-transferase fused to the last 77 residues of PRK2 (PIF)	–	–	–	–
